Assay results from publication PMC8080620, “Coiled-coil heterodimers with increased stability for cellular regulation and sensing SARS-CoV-2 spike protein-mediated cell fusion” (Scientific Reports, 2021).
Where a name gives a salt, the structure may show the parent alone.

Columns and labels:
[1] = tested on: reconstituted CC-split luciferase in HEK293T cells; experiment: CC-split luciferase displacement by externally added synthetic displacer peptide; format: cell-based, human; conditions: for Displacement of cognate peptide from the N8:N7 split luciferase by added synthetic peptide: nLuc:N8 and cLuc:N7, peptide 0–50 µM in DOTAP for 2 h (Fig. S6B)
[2] = CD thermal denaturation scans (midpoint Tm); format: physicochemical; conditions: CC of the peptide with N8 compared with N8:N7
Procedure: CD measurements were performed with a ChiraScan instrument (Applied Photophysics, UK) equipped with a Peltier thermal control block (Melcor, NJ, Laird Technologies). The final concentrations of individual peptides were […] in Tris buffer (50 mM Tris–HCl, pH 7.5, 150 mM NaCl, and 1 mM TCEP). The mixture also contained a 20 μM concentration of each peptide. All experiments were performed in a quartz cuvette (Hellma, Germany) with a path length of 1 mm. CD spectra were measured every 1 nm from 200 to 280 nm with a bandwidth of 1 nm and 0.5 s integration time. The results are the average of three scans. Temperature denaturation scans were performed by measuring the CD signal at 222 nm from 0 to 95 °C in 1 °C increments at a rate of 1 °C/min. The actual sample temperatures were measured directly in the cuvette using a temperature probe. The CD spectrum was measured at 95 °C and at 20 °C after rapid cooling.

[3] = tested on: CC-split transcription factor (TALE-A:CC with CC:VP16) in HEK293T cells; experiment: CC-split transcription factor reconstitution and displacement (TALE10x-Pmin-fLuc reporter); format: cell-based, human; conditions: TALE-A:N8 with CC:VP16, displacer plasmid 0-50 or 0–70 ng, 48 h after transfection
[4] = tested on: reconstituted CC-split luciferase in HEK293T cells; experiment: CC-split luciferase attenuation by co-expressed displacer peptide; format: cell-based, human
[5] = SEC-MALS multimerization state; format: physicochemical; conditions: peptides 200 µM in 50 mM Tris–HCl pH 7.5, 150 mM NaCl, 10% glycerol
Procedure: A Waters e2695 HPLC system coupled with a 2489 UV detector (Waters, MA) and a Dawn 8 + multiple-angle light scattering detector (Wyatt, CA) was used for SEC-MALS experiments. Peptides (200 μM in 50 mM Tris–HCl with a pH of 7.5, 150 mM NaCl, and 10% glycerol) were filtered using Durapore 0.1 μm centrifuge filters (Merck Millipore, Ireland) before being injected onto the Biosep SEC-S2000 column (Phenomenex, CA), with the exception of the peptide N2, which was injected in a Superdex 30 increase column (GE, IL). The mobile phases used for the separations were 50 mM Tris–HCl, pH 7.5, 150 mM NaCl and 50 mM Tris–HCl, pH 7.5, 500 mM NaCl for the Biosep SEC-S2000 column and the Superdex 30 increase column, respectively. The injection volume was 50 μl, and the flow rate was 0.5 ml/min. Data analysis was carried out with Astra 7.0 software (Wyatt, CA) utilizing the theoretical extinction coefficient calculated by ProtParam.

[6] = tested on: SARS-CoV-2 S protein-mediated cell–cell fusion; format: cell-based, human
P8A [7] = biological target: T1, P8A (N-terminal acetylation; C-terminal amidation); experiment: CD thermal denaturation; 20 µM each peptide; CD signal at 222 nm, 0 to 95 °C; 50 mM Tris-HCl pH 7.5, 150 mM NaCl, 1 mM TCEP; midpoint Tm from a thermodynamic model fit; conditions: both partners purified
T1 chain: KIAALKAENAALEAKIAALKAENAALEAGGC

P8A [8] = biological target: T2, P8A (synthetic construct, N-terminal acetylation; C-terminal amidation); experiment: ITC
T2 chain: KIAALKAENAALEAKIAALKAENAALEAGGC

P6A [9] = biological target: T3, P6A (N-terminal acetylation; C-terminal amidation); experiment: CD thermal denaturation; 20 µM each peptide; CD signal at 222 nm, 0 to 95 °C; 50 mM Tris-HCl pH 7.5, 150 mM NaCl, 1 mM TCEP; midpoint Tm from a thermodynamic model fit; conditions: both partners purified
T3 chain: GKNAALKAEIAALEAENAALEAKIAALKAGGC

P6A [10] = biological target: T4, P6A (synthetic construct, N-terminal acetylation; C-terminal amidation); experiment: ITC
T4 chain: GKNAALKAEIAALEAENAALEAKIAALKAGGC

[11] = biological target: the molecule itself; experiment: SEC-MALS; peptides 200 µM, alone or as equimolar mixture; Biosep SEC-S2000 column; 50 mM Tris-HCl pH 7.5, 150 mM NaCl
N6 = biological target: T5, N6 (synthetic construct, N-terminal acetylation; C-terminal amidation); experiment: ITC
T5 chain: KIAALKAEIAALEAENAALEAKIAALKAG

N8 = biological target: T6, N8 (synthetic construct, N-terminal acetylation; C-terminal amidation); experiment: ITC
T6 chain: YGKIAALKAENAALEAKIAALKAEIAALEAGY

EIQQLEE KNSQLKQ EISQLEE KNQELKY G [P7SN, reference compound]
Displacement of cognate peptide from the N8:N7 split luciferase by added synthetic peptide ([1]; HEK293T): failed to displace the cognate peptide from the N8:N7 split luciferase as efficiently | midpoint Tm of N-P-CCs lower than N-CCs [2]: more than 10 °C

SPED EIQALEE KNAQLKQ EIAALEE KNQALKY G [P7, reference compound]
Displacement of cognate peptide from the N8:N7 split luciferase by added synthetic peptide ([1]; HEK293T): failed to displace the cognate peptide from the N8:N7 split luciferase as efficiently | Attenuation of CC-split transcription activator assembly by co-expressed NLS-tagged CC-displacer peptide [3]: failed to prevent the reconstitution of a functional transcription as efficiently | midpoint Tm of N-P-CCs lower than N-CCs [2]: more than 10 °C

Y EIAALEA KNAALKA EIAALEA KIAALKA GC [N7]
Luciferase activity of CC-split luciferase after addition of synthetic CC-displacer peptide ([1]; […], peptide in DOTAP for 2 h, 48 h after transfection): debilitated CC-split luciferase assembly most efficiently | Competition of co-expressed displacer peptide with N8:N7 CC split luciferase ([4]; HEK293T, plasmid expressing displacer 0, 80, 155 ng, 48 h after transfection): failed to effectively compete | Attenuation of CC-split transcription activator assembly by co-expressed NLS-tagged CC-displacer peptide [3]: weakened the transcription activator assembly most efficiently

YG KIAALKA ENAALEA KIAALKA ENAALEA GGC [P8A]
Multimerization state in solution [5]: monomers

CN(C)C(=O)COC(=O)Cc1ccc(OC(=O)c2ccc(NC(=N)N)cc2)cc1 [Camostat, camostat mesylate]
Syncytia formation, luciferase activity of mixture of donor and acceptor cells [6]: reduced the amount of formed syncytia

YG EIAALEA KNAALKA EIAALEA KNAALKA GC [P7A]
Displacement of cognate peptide from the N8:N7 split luciferase by added synthetic peptide ([1]; HEK293T): failed to displace the cognate peptide from the N8:N7 split luciferase as efficiently | Attenuation of CC-split transcription activator assembly by co-expressed NLS-tagged CC-displacer peptide [3]: failed to prevent the reconstitution of a functional transcription as efficiently | Multimerization state in solution [5]: monomers | midpoint Tm of N-P-CCs lower than N-CCs [2]: more than 10 °C

Y EIAALEA KIAALKA KNAALKA EIAALEA GC [N5]
Displacement of cLuc:P5 from the N6:P5 split luciferase by added synthetic peptide ([1]; HEK293T, nLuc:N6 and cLuc:P5, […]): effectively displaced cLuc:P5 | N6:P5 split luciferase activity with co-expressed displacer peptide [4]: attenuated N6:P5 split luciferase activity

YG KNAALKA EIAALEA ENAALEA KIAALKA GGC [P6A]
Multimerization state in solution [5]: monomers

YG ENAALEA KIAALKA KNAALKA EIAALEA GC [P5A]
Multimerization state in solution [5]: monomers

B1: P7A (peptide)
chain: Ac-GEIAALEAKNAALKAEIAALEAKNAALKAGC-NH2
Tm (P8A [7]): 64 °C | Kd (P8A [8]): 19 nM

B2: P5A (peptide)
chain: Ac-ENAALEAKIAALKAKNAALKAEIAALEA-NH2
Tm (P6A [9]): 57 °C | Kd (P6A [10]): 4 nM

B3: N5 (peptide)
chain: Ac-GEIAALEAKIAALKAKNAALKAEIAALEAGY-NH2
stoichiometry N [11]: 2 | Kd (N6): 1 nM

B4: N7 (peptide)
chain: Ac-GEIAALEAKNAALKAEIAALEAKIAALKAGY-NH2
stoichiometry N [11]: 2 | Kd (N8): 10 nM

B5: N8 (peptide)
chain: Ac-YGKIAALKAENAALEAKIAALKAEIAALEAGY-NH2
stoichiometry N [11]: 2

B6: N6 (peptide)
chain: Ac-KIAALKAEIAALEAENAALEAKIAALKAG-NH2
stoichiometry N [11]: 2
